Reference: patent publication US11660303B2, “2-phenylimidazo[4,5-b]pyridin-7-amine derivates useful as inhibitors of mammalian tyrosine kinase ROR1 activity” (KANCERA AB, priority 2016, dated 2023)

Assays:
Type in all cases: cell-based
RC-KB = assay: MTT cytotoxicity assay, RC-KB; conditions: Diffuse large B-cell lymphoma (DLBCL), incubation 48 h
Method: (§1) The MTT assay (Sigma-Aldrich) was used to measure cytotoxic capability of the ROR1 tyrosine kinase inhibitors (ROR1-TKI). Briefly, 2×10^4 cancer cells were incubated in triplicates in 200 μL of RPMI-1640 containing 10% FCS in 96 well plates. ROR1-TKI (dissolved in DMSO), were added to the cells. Cells treated with DMSO were used as negative control. Cells were incubated for 48, 72 or 96 h. An amount of 20 μL MTT solution was added and the cell suspension was incubated for 4 h at 37 degrees C. The reaction was stopped by adding 100 μL MTT solvent (10% SDS in 0.01 M HCl) and was incubated for further 2-4 h. The plate was then read by a microplate reader at 570 nm.
(§2) Results, in terms of IC50 (μM), are shown in Table 4 for a representative compound of the invention, viz. Example 172.

SUDHL4 = assay: MTT cytotoxicity assay, SUDHL4; conditions: Homo sapiens, SU-DHL-4, SUDHL4, Diffuse large B-cell lymphoma (DLBCL), incubation 48 h
Method: as §1, §2

OCI-LY3 = assay: MTT cytotoxicity assay, OCI-LY3; conditions: Homo sapiens, OCI-LY3, Diffuse large B-cell lymphoma (DLBCL), incubation 48 h
Method: as §1, §2

HDLM2 = assay: MTT cytotoxicity assay, HDLM2; conditions: Homo sapiens, HDLM-2, HDLM2, Hodgkin’s Lymphoma (HL), incubation 48 h
Method: as §1, §2

H82 = assay: Alamar Blue cell viability assay, H82; conditions: Homo sapiens, NCI-H82; H82, Small cell lung cancer, alamarBlue, incubation 72 h
Method: (§3) Alamar Blue Cell Viability Assay
(§4) Cells were plated 12 hours prior to start of drug treatment, which lasted for 72 hours for all cytotoxicity experiments. Cell viability was estimated by alamarBlue™ Cell Viability Reagent (ThermoFisher, Waltham, Mass.) per manufacturer's instructions.
as §2

H187 = assay: Alamar Blue cell viability assay, H187; conditions: Homo sapiens, NCI-H187; H187, Small cell lung cancer, alamarBlue, incubation 72 h
Method: as §3, §4, §2

H209 = assay: Alamar Blue cell viability assay, H209; conditions: Homo sapiens, NCI-H209; H209, Small cell lung cancer, alamarBlue, incubation 72 h
Method: as §3, §4, §2

H1417 = assay: Alamar Blue cell viability assay, H1417; conditions: Homo sapiens, NCI-H1417; H1417, Small cell lung cancer, alamarBlue, incubation 72 h
Method: as §3, §4, §2

H1963 = assay: Alamar Blue cell viability assay, H1963; conditions: Homo sapiens, NCI-H1963; H1963, Small cell lung cancer, alamarBlue, incubation 72 h
Method: as §3, §4, §2

H1299 = assay: MTT cytotoxicity assay, H1299; conditions: Homo sapiens, NCI-H1299, H1299, Non-small cell lung cancer, incubation 72 h
Method: as §1, §2

HCC827 = assay: MTT cytotoxicity assay, HCC827; conditions: Homo sapiens, HCC827, Non-small cell lung cancer, incubation 72 h
Method: as §1, §2

H1975 = assay: MTT cytotoxicity assay, H1975; conditions: Homo sapiens, NCI-H1975, H1975, Non-small cell lung cancer, incubation 72 h
Method: as §1, §2

SEM cells = assay: Flow cytometry Annexin V/PI apoptosis assay, SEM; conditions: B-cell acute lymphoblastic leukemia (B-ALL), incubation 48 h
Method: (§5) Flow Cytometry Annexin V/PI Apoptosis Assay
(§6) An amount of 1 ml (10^5 cells/mL) of cells were seeded in each well of 6-well plates with and without compounds for 48 h. Cells were collected, washed with PBS, suspended in 100 μL of Annexin-V binding buffer (BD Biosciences) containing FITC-conjugated Annexin-V and PI (BD Biosciences) and incubated at room temperature in the dark for 20 min. After 20 min of incubation, 150 μL Annexin-V binding buffer was added. Viable cells were identified as the double negative Annexin-V and PI population. Samples were analyzed by a FACS Canto II Flow-cytometer (BD Biosciences).
as §2

Reh [1] = assay: MTT cytotoxicity assay, Reh; conditions: Homo sapiens, Non-T-cell non-B-cell-acute lymphoblastic leukemia, incubation 48 h
Method: as §1, §2

Reh [2] = assay: Flow cytometry Annexin V/PI apoptosis assay, Reh; conditions: Homo sapiens, Non-T-cell non-B-cell-acute lymphoblastic leukemia, incubation 48 h
Method: as §5, §6, §2

SupB15 = assay: MTT cytotoxicity assay, SupB15; conditions: Homo sapiens, SUP-B15, SupB15, B-cell acute lymphoblastic leukemia (B-ALL), incubation 48 h
Method: as §1, §2

KE37 = assay: Flow cytometry Annexin V/PI apoptosis assay, KE37; conditions: Homo sapiens, KE-37, KE37, T-cell acute lymphoblastic leukemia (T-ALL), incubation 48 h
Method: as §5, §6, §2

HPB = assay: Flow cytometry Annexin V/PI apoptosis assay, HPB; conditions: T-cell acute lymphoblastic leukemia (T-ALL), incubation 48 h
Method: as §5, §6, §2

SKOV3 = assay: Flow cytometry Annexin V/PI apoptosis assay, SKOV3; conditions: Homo sapiens, SK-OV-3, SKOV3, Ovarian cancer (OC), incubation 48 h
Method: as §5, §6, §2

Caov3 = assay: Flow cytometry Annexin V/PI apoptosis assay, Caov3; conditions: Homo sapiens, Caov-3, Caov3, Ovarian cancer (OC), incubation 48 h
Method: as §5, §6, §2

A2780 = assay: Flow cytometry Annexin V/PI apoptosis assay, A2780; conditions: Homo sapiens, A2780, Ovarian cancer (OC), incubation 48 h
Method: as §5, §6, §2

Z138 = assay: MTT cytotoxicity assay, Z138; conditions: Homo sapiens, Z-138, Z138, Mantle Cell Lymphoma (MCL), incubation 96 h
Method: as §1, §2

Mino = assay: MTT cytotoxicity assay, Mino; conditions: Homo sapiens, Mantle Cell Lymphoma (MCL), incubation 96 h
Method: as §1, §2

JeKo1 = assay: MTT cytotoxicity assay, JeKo1; conditions: Homo sapiens, JeKo-1, JeKo1, Mantle Cell Lymphoma (MCL), incubation 96 h
Method: as §1, §2

Kelly = assay: MTT cytotoxicity assay, Kelly; conditions: Neuroblastoma, incubation 48 h
Method: as §1, §2

MIA PaCa-2 = assay: MTT cytotoxicity assay, MIA PaCa-2; conditions: Homo sapiens, MIA PaCa-2, Pancreatic cancer, incubation 48 h
Method: as §1, §2

232-B4 = assay: MTT cytotoxicity assay, 232-B4; conditions: 232-B4, CLL cell line, ExPASy Accession No: CVCL_Y436, MTT, incubation 48 h
Method: as §1, §2

EHEB = assay: MTT cytotoxicity assay, EHEB; conditions: CLL cell line, DSMZ bank, (ACC 67), incubation 48 h
Method: as §1, §2

- IC50 (H187): 230 nM
- IC50 (H209): 240 nM
- IC50 (H1417): 540 nM
- IC50 (H1963): 200 nM
- IC50 (SEM cells): 31 nM
- IC50 (Reh [2]): 41 nM
- IC50 (KE37): 180 nM
- IC50 (HPB): 140 nM
- IC50 (SKOV3): 610 nM
- IC50 (Caov3): 270 nM
- IC50 (A2780): 270 nM
Compound: CCOCCN1CCN(c2ccc(-c3nc4c(NC5CCN(CC)CC5)c(Br)cnc4[nH]3)cc2)CC1 [Example 172, 6-Bromo-2-{4-[4-(2-ethoxyethyl)piperazin-1-yl]phenyl}-N-(1-ethylpiperidin-4-yl)-3H-imidazo[4,5-b]pyridin-7-amine]
- IC50 (RC-KB): 100 nM
- IC50 (SUDHL4): 50 nM
- IC50 (OCI-LY3): 50 nM
- IC50 (HDLM2): 50 nM
- IC50 (H82): 410 nM
- IC50 (H1299): 250 nM
- IC50 (HCC827): 100 nM
- IC50 (H1975): 250 nM
- IC50 (Reh [1]): 50 nM
- IC50 (SupB15): 50 nM
- IC50 (Z138): 250 nM
- IC50 (Mino): 50 nM
- IC50 (JeKo1): 75 nM
- IC50 (Kelly): 80 nM
- IC50 (MIA PaCa-2): 100 nM
- IC50 (232-B4): 200 nM
- IC50 (EHEB): 200 nM
